The source of these data is the NIST ThermoML archive (doi:10.1016/j.jct.2007.02.009).

For data set [1] the following is noted: Crystal; Adiabatic calorimetry.
Data set [2] in a line: Molar enthalpy of transition or fusion. To be noted: Crystal; Adiabatic calorimetry.

± gives the expanded uncertainty stated by the source.

Consider `CC(=O)N(C)C` [N,N-dimethylethanamide], for which the Triple point temperature in data set [1] is 254.23 ± 0.18 K. Also, in data set [2], the “Molar enthalpy of transition or fusion” value was 2.44 ± 0.0598 kcal/mol.
